Where two headings read alike, the source gives them in different places.
Legend:
Type in all cases: cell-based, human
HCT-116 = assay: NCI five-dose assay; conditions: for GI50: read-out: GI50 Conc. per Cell Lines
Colon cancer subpanel = assay: NCI five-dose assay, subpanel mean; conditions: for GI50 Selectivity Ratio (MID a/MID b): Colon cancer subpanel; for GI50: Homo sapiens, read-out: GI50 Subpanel MID b
HS 578T = assay: NCI five-dose assay; conditions: for LC50 / GI50: Homo sapiens; for GI50: read-out: GI50 Conc. per Cell Lines
Leukemia subpanel = assay: NCI five-dose assay, subpanel mean; conditions: for GI50: Homo sapiens, read-out: GI50 Subpanel MID b; for GI50 Selectivity Ratio (MID a/MID b): Leukemia subpanel
HCT-15 = assay: NCI five-dose assay; conditions: for GI50 / CC50: Homo sapiens; for GI50: read-out: GI50 Conc. per Cell Lines; for CC50: read-out: LC50 (the source's name)
Breast cancer subpanel = assay: NCI five-dose assay, subpanel mean; conditions: for GI50 Selectivity Ratio (MID a/MID b): Breast cancer subpanel; for GI50: Homo sapiens, read-out: GI50 Subpanel MID b
T-47D = assay: NCI five-dose assay; conditions: for LC50 (concentration killing 50% of cells) / GI50: Homo sapiens, T47D; for GI50: read-out: GI50 Conc. per Cell Lines
CNS cancer subpanel = assay: NCI five-dose assay, subpanel mean; conditions: for GI50 Selectivity Ratio (MID a/MID b): CNS cancer subpanel; for GI50: Homo sapiens, read-out: GI50 Subpanel MID b
HL-60(TB) = assay: NCI five-dose assay; conditions: for GI50: read-out: GI50 Conc. per Cell Lines
M14 = assay: NCI five-dose assay; conditions: for GI50: read-out: GI50 Conc. per Cell Lines
CCRF-CEM = assay: NCI five-dose assay; conditions: for GI50 / CC50: Homo sapiens; for GI50: read-out: GI50 Conc. per Cell Lines; for CC50: read-out: LC50 (the source's name)
RPMI-8226 = assay: NCI five-dose assay; conditions: for GI50 / CC50: Homo sapiens; for GI50: read-out: GI50 Conc. per Cell Lines; for CC50: read-out: LC50 (the source's name)
LOX IMVI = assay: NCI five-dose assay; conditions: for GI50 / CC50: Homo sapiens; for GI50: read-out: GI50 Conc. per Cell Lines; for CC50: read-out: LC50 (the source's name)
BT-549 = assay: NCI five-dose assay; conditions: for GI50 / CC50: Homo sapiens; for GI50: read-out: GI50 Conc. per Cell Lines; for CC50: read-out: LC50 (the source's name)
SNB-19 = assay: NCI five-dose assay; conditions: for GI50 / CC50: Homo sapiens; for GI50: read-out: GI50 Conc. per Cell Lines; for CC50: read-out: LC50 (the source's name)

Compound: O/N=C(\CSc1nnc(-c2c[nH]c3ccccc23)n1-c1ccccc1)c1ccc(Cl)cc1 [Compound 7j, (Z)-2-((5-(1H-Indol-3-yl)-4-phenyl-4H-1,2,4-triazol-3-yl)thio)-1-(4-chlorophenyl) Ethanone Oxime]
- TGI Conc. per Cell Lines (HCT-116; HCT-116, five dose levels): 13.7 µM
- GI50 (HCT-116; Homo sapiens, HCT-116, five dose levels): 2.92 µM
- CC50 (HCT-116; Homo sapiens, HCT-116, five dose levels, read-out: LC50 (the source's name)): > 100 µM
- GI50 Selectivity Ratio (MID a/MID b) (Colon cancer subpanel): 0.978
- GI50 (Colon cancer subpanel; Colon cancer, average sensitivity of all cell lines of the subpanel): 3.73 µM
- LC50 (HS 578T; five dose levels): > 100 µM
- GI50 (HS 578T; five dose levels): 3.09 µM
- TGI Conc. per Cell Lines (HS 578T; five dose levels): 16.6 µM
- GI50 (Leukemia subpanel; Leukemia, average sensitivity of all cell lines of the subpanel): 2.8 µM
- GI50 Selectivity Ratio (MID a/MID b) (Leukemia subpanel): 1.30
- TGI Conc. per Cell Lines (HCT-15; HCT-15, five dose levels): 13.6 µM
- GI50 (HCT-15; HCT-15, five dose levels): 3.2 µM
- CC50 (HCT-15; HCT-15, five dose levels): > 100 µM
- GI50 Selectivity Ratio (MID a/MID b) (Breast cancer subpanel): 1.24
- GI50 (Breast cancer subpanel; Breast cancer, average sensitivity of all cell lines of the subpanel): 2.93 µM
- LC50 (concentration killing 50% of cells) (T-47D; five dose levels): > 100 µM
- GI50 (T-47D; five dose levels): 3.6 µM
- TGI Conc. per Cell Lines (T-47D; five dose levels): 31.4 µM
- GI50 Selectivity Ratio (MID a/MID b) (CNS cancer subpanel): 0.763
- GI50 (CNS cancer subpanel; CNS cancer, average sensitivity of all cell lines of the subpanel): 4.78 µM
- GI50 (HL-60(TB); Homo sapiens, five dose levels): 2.17 µM
- CC50 (HL-60(TB); Homo sapiens, five dose levels, read-out: LC50 (the source's name)): > 100 µM
- TGI Conc. per Cell Lines (HL-60(TB); five dose levels): 6.34 µM
- GI50 (M14; Homo sapiens, M14, five dose levels): 3.15 µM
- CC50 (M14; Homo sapiens, M14, five dose levels, read-out: LC50 (the source's name)): > 100 µM
- TGI Conc. per Cell Lines (M14; M14, five dose levels): 14.1 µM
- GI50 (CCRF-CEM; five dose levels): 2.85 µM
- CC50 (CCRF-CEM; five dose levels): > 100 µM
- GI50 (RPMI-8226; RPMI-8226, five dose levels): 2.38 µM
- CC50 (RPMI-8226; RPMI-8226, five dose levels): > 100 µM
- TGI Conc. per Cell Lines (RPMI-8226; RPMI-8226, five dose levels): 7.29 µM
- GI50 (LOX IMVI; five dose levels): 1.72 µM
- CC50 (LOX IMVI; five dose levels): 17.4 µM
- TGI Conc. per Cell Lines (LOX IMVI; five dose levels): 3.12 µM
- TGI Conc. per Cell Lines (BT-549; BT-549, five dose levels): 11.1 µM
- GI50 (BT-549; BT-549, five dose levels): 3.71 µM
- CC50 (BT-549; BT-549, five dose levels): 6.28 µM
- GI50 (SNB-19; SNB-19, five dose levels): 6.89 µM
- CC50 (SNB-19; SNB-19, five dose levels): > 100 µM
- TGI Conc. per Cell Lines (SNB-19; SNB-19, five dose levels): 45.2 µM

Compound: Cc1ccc(/C(CSc2nnc(-c3c[nH]c4ccccc34)n2-c2ccccc2)=N/O)cc1 [Compound 7h, (Z)-2-((5-(1H-Indol-3-yl)-4-phenyl-4H-1,2,4-triazol-3-yl)thio)-1-(p-tolyl)ethanone Oxime]
- TGI Conc. per Cell Lines (HCT-116; HCT-116, Colon cancer): 3.65 µM
- GI50 (HCT-116; Homo sapiens, HCT-116, Colon cancer): 1.87 µM
- GI50 Selectivity Ratio (MID a/MID b) (Colon cancer subpanel): 0.959
- GI50 (Colon cancer subpanel; average sensitivity of all cell lines of the Colon cancer subpanel): 3.13 µM
- TGI Conc. per Cell Lines (HS 578T; Breast cancer): 4.82 µM
- LC50 (HS 578T; Breast cancer, 48 h): > 100 µM
- GI50 (HS 578T; Breast cancer): 2.07 µM
- GI50 (Leukemia subpanel; average sensitivity of all cell lines of the Leukemia subpanel): 2.03 µM
- GI50 Selectivity Ratio (MID a/MID b) (Leukemia subpanel): 1.47
- TGI Conc. per Cell Lines (HCT-15; HCT-15, Colon cancer): 3.34 µM
- CC50 (HCT-15; HCT-15, Colon cancer, 48 h): 6.37 µM
- GI50 (HCT-15; HCT-15, Colon cancer): 1.75 µM
- GI50 Selectivity Ratio (MID a/MID b) (Breast cancer subpanel): 1.58
- GI50 (Breast cancer subpanel; average sensitivity of all cell lines of the Breast cancer subpanel): 1.9 µM
- TGI Conc. per Cell Lines (T-47D; Breast cancer): 4.75 µM
- LC50 (concentration killing 50% of cells) (T-47D; Breast cancer, 48 h): > 100 µM
- GI50 (T-47D; Breast cancer): 2.07 µM
- GI50 Selectivity Ratio (MID a/MID b) (CNS cancer subpanel): 1.04
- GI50 (CNS cancer subpanel; average sensitivity of all cell lines of the CNS cancer subpanel): 2.86 µM
- GI50 (HL-60(TB); Homo sapiens, Leukemia): 1.92 µM
- TGI Conc. per Cell Lines (HL-60(TB); Leukemia): 3.96 µM
- GI50 (M14; Homo sapiens, M14, Melanoma): 1.79 µM
- TGI Conc. per Cell Lines (M14; M14, Melanoma): 3.86 µM
- CC50 (CCRF-CEM; Leukemia, 48 h): > 100 µM
- GI50 (CCRF-CEM; Leukemia): 2.14 µM
- TGI Conc. per Cell Lines (CCRF-CEM; Leukemia): 4.98 µM
- CC50 (RPMI-8226; RPMI-8226, Leukemia, 48 h): > 100 µM
- GI50 (RPMI-8226; RPMI-8226, Leukemia): 2.05 µM
- TGI Conc. per Cell Lines (RPMI-8226; RPMI-8226, Leukemia): 4.81 µM
- CC50 (LOX IMVI; Melanoma, 48 h): 5.73 µM
- GI50 (LOX IMVI; Melanoma): 1.75 µM
- TGI Conc. per Cell Lines (LOX IMVI; Melanoma): 3.17 µM
- TGI Conc. per Cell Lines (BT-549; BT-549, Breast cancer): 3.03 µM
- CC50 (BT-549; BT-549, Breast cancer, 48 h): 5.78 µM
- GI50 (BT-549; BT-549, Breast cancer): 1.59 µM
- CC50 (SNB-19; SNB-19, CNS cancer, 48 h): 8.46 µM
- GI50 (SNB-19; SNB-19, CNS cancer): 1.87 µM
- TGI Conc. per Cell Lines (SNB-19; SNB-19, CNS cancer): 3.97 µM

From publication PMC11859928, “Design, Synthesis, and Antiproliferative Activity of Novel Indole/1,2,4-Triazole Hybrids as Tubulin Polymerization Inhibitors” (Pharmaceuticals, 2025)
